Assay results published in ChEMBL document CHEMBL5303573, “Mapping human microbiome drug metabolism by gut bacteria and their genes” (Nature, 2019).

Assays:
[1] = The drug is tested on Bifidobacterium breve strain: DSM20213 for biotransformation. The drug concentrations were measured before and after a 12-h incubation by liquid-chromatography-coupled mass spectrometry (LC–MS); settings: 2 µM
[2] = The drug is tested on Bacteroides cellulosilyticus strain: DSM14838 for biotransformation. The drug concentrations were measured before and after a 12-h incubation by liquid-chromatography-coupled mass spectrometry (LC–MS); settings: 2 µM
[3] = The drug is tested on Bacteroides coprophilus strain: DSM18228 for biotransformation. The drug concentrations were measured before and after a 12-h incubation by liquid-chromatography-coupled mass spectrometry (LC–MS); settings: 2 µM
[4] = The drug is tested on Ruminococcus gnavus strain: ATCC29149 for biotransformation. The drug concentrations were measured before and after a 12-h incubation by liquid-chromatography-coupled mass spectrometry (LC–MS); settings: mediterraneibacter gnavus, 2 µM
[5] = The drug is tested on Anaerococcus hydrogenalis strain: DSM7454 for biotransformation. The drug concentrations were measured before and after a 12-h incubation by liquid-chromatography-coupled mass spectrometry (LC–MS); settings: 2 µM
[6] = The drug is tested on Clostridium scindens strain: ATCC35704 for biotransformation. The drug concentrations were measured before and after a 12-h incubation by liquid-chromatography-coupled mass spectrometry (LC–MS); settings: 2 µM
[7] = The drug is tested on Alistipes indistinctus strain: DSM22520 for biotransformation. The drug concentrations were measured before and after a 12-h incubation by liquid-chromatography-coupled mass spectrometry (LC–MS); settings: 2 µM
[8] = The drug is tested on Eubacterium ventriosum strain: ATCC27560 for biotransformation. The drug concentrations were measured before and after a 12-h incubation by liquid-chromatography-coupled mass spectrometry (LC–MS); format: ADME; parameters: dose 2 uM, timepoint 0 vs 12 hours; settings: 2 µM
[9] = bacteroides thetaiotaomicron, 12 h, 2 µM
Description: The drug is tested on Bacteroides thetaiotaomicron strain: 3731 for biotransformation. The drug concentrations were measured before and after a 12-h incubation by liquid-chromatography-coupled mass spectrometry (LC–MS)

[10] = The drug is tested on Eubacterium hallii strain: DSM3353 for biotransformation. The drug concentrations were measured before and after a 12-h incubation by liquid-chromatography-coupled mass spectrometry (LC–MS); settings: anaerobutyricum hallii, 2 µM
[11] = The drug is tested on Bacteroides finegoldii strain: DSM17565 for biotransformation. The drug concentrations were measured before and after a 12-h incubation by liquid-chromatography-coupled mass spectrometry (LC–MS); settings: 2 µM
[12] = The drug is tested on Ruminococcus lactaris strain: ATCC29176 for biotransformation. The drug concentrations were measured before and after a 12-h incubation by liquid-chromatography-coupled mass spectrometry (LC–MS); settings: 2 µM
[13] = parabacteroides distasonis, 12 h, 2 µM
Description: The drug is tested on Parabacteroides distasonis strain: ATCC8503 for biotransformation. The drug concentrations were measured before and after a 12-h incubation by liquid-chromatography-coupled mass spectrometry (LC–MS)

[14] = The drug is tested on Anaerotruncus colihominis strain: DSM17241 for biotransformation. The drug concentrations were measured before and after a 12-h incubation by liquid-chromatography-coupled mass spectrometry (LC–MS); settings: 2 µM
[15] = bacteroides stercoris, 12 h, 2 µM
Description: The drug is tested on Bacteroides stercoris strain: ATCC43183 for biotransformation. The drug concentrations were measured before and after a 12-h incubation by liquid-chromatography-coupled mass spectrometry (LC–MS)

[16] = The drug is tested on Enterobacter cancerogenus strain: ATCC35316 for biotransformation. The drug concentrations were measured before and after a 12-h incubation by liquid-chromatography-coupled mass spectrometry (LC–MS); settings: 2 µM
[17] = bacteroides fragilis, 12 h, 2 µM
Description: The drug is tested on Bacteroides fragilis strain: DS-208 for biotransformation. The drug concentrations were measured before and after a 12-h incubation by liquid-chromatography-coupled mass spectrometry (LC–MS)

[18] = bacteroides fragilis, 12 h, 2 µM; remark: listed apart in the source
Description: The drug is tested on Bacteroides fragilis strain: 3397 (T10) for biotransformation. The drug concentrations were measured before and after a 12-h incubation by liquid-chromatography-coupled mass spectrometry (LC–MS)

[19] = parabacteroides johnsonii, 12 h, 2 µM
Description: The drug is tested on Parabacteroides johnsonii strain: DSM18315 for biotransformation. The drug concentrations were measured before and after a 12-h incubation by liquid-chromatography-coupled mass spectrometry (LC–MS)

[20] = The drug is tested on Bacteroides vulgatus strain: ATCC8482 for biotransformation. The drug concentrations were measured before and after a 12-h incubation by liquid-chromatography-coupled mass spectrometry (LC–MS); settings: phocaeicola vulgatus, 2 µM

Compound | Bacterial Biotransformation [1] | Bacterial Biotransformation [2] | Bacterial Biotransformation [3] | Bacterial Biotransformation [4] | Bacterial Biotransformation [5] | Bacterial Biotransformation [6] | Bacterial Biotransformation [7] | Bacterial Biotransformation [8] | Bacterial Biotransformation [9] | Bacterial Biotransformation [10] | Bacterial Biotransformation [11] | Bacterial Biotransformation [12] | Bacterial Biotransformation [13] | Bacterial Biotransformation [14] | Bacterial Biotransformation [15] | Bacterial Biotransformation [16] | Bacterial Biotransformation [17] | Bacterial Biotransformation [18] | Bacterial Biotransformation [19] | Bacterial Biotransformation [20]
NC(=O)N1c2ccccc2CC(=O)c2ccccc21 [OXCARBAZEPINE] | Compound NOT metabolized | Compound NOT metabolized | Compound metabolized | Compound NOT metabolized | Compound NOT metabolized | Compound metabolized | Compound metabolized | Compound metabolized | Compound NOT metabolized | Compound NOT metabolized | Compound NOT metabolized | Compound metabolized | Compound metabolized | Compound NOT metabolized | Compound metabolized | Compound metabolized |  |  |  | 
COc1cc2nc(N3CCN(C(=O)C4COc5ccccc5O4)CC3)nc(N)c2cc1OC.CS(=O)(=O)O (stereo unspecified) [DOXAZOSIN MESYLATE] | Compound NOT metabolized | Compound NOT metabolized | Compound NOT metabolized | Compound NOT metabolized | Compound NOT metabolized | Compound NOT metabolized | Compound metabolized | Compound NOT metabolized | Compound NOT metabolized | Compound NOT metabolized | Compound NOT metabolized | Compound NOT metabolized |  | Compound NOT metabolized | Compound NOT metabolized | Compound NOT metabolized | Compound NOT metabolized | Compound NOT metabolized | Compound NOT metabolized | 
CC(=O)CCCCn1c(=O)c2c(ncn2C)n(C)c1=O [PENTOXIFYLLINE] | Compound NOT metabolized | Compound NOT metabolized | Compound NOT metabolized | Compound NOT metabolized | Compound NOT metabolized |  | Compound NOT metabolized | Compound NOT metabolized | Compound NOT metabolized | Compound NOT metabolized |  | Compound NOT metabolized |  | Compound NOT metabolized | Compound NOT metabolized | Compound NOT metabolized | Compound NOT metabolized | Compound NOT metabolized | Compound NOT metabolized | 
CCc1nn(CCCN2CCN(c3cccc(Cl)c3)CC2)c(=O)n1CCOc1ccccc1 [NEFAZODONE] | Compound NOT metabolized | Compound NOT metabolized | Compound NOT metabolized | Compound NOT metabolized | Compound NOT metabolized | Compound NOT metabolized | Compound NOT metabolized | Compound NOT metabolized | Compound NOT metabolized |  |  | Compound NOT metabolized | Compound NOT metabolized | Compound NOT metabolized | Compound NOT metabolized | Compound NOT metabolized | Compound NOT metabolized | Compound NOT metabolized | Compound NOT metabolized | 
C#C[C@]1(OC(C)=O)CC[C@H]2[C@@H]3CCC4=C/C(=N/O)CC[C@@H]4[C@H]3CC[C@@]21CC [NORGESTIMATE] | Compound NOT metabolized | Compound NOT metabolized | Compound NOT metabolized | Compound NOT metabolized | Compound NOT metabolized | Compound NOT metabolized | Compound NOT metabolized | Compound NOT metabolized | Compound NOT metabolized | Compound NOT metabolized | Compound metabolized | Compound NOT metabolized |  | Compound NOT metabolized |  | Compound NOT metabolized | Compound NOT metabolized | Compound NOT metabolized | Compound metabolized | 
CC(C)(C)NC(=O)[C@H]1CC[C@H]2[C@@H]3CC[C@H]4NC(=O)C=C[C@]4(C)[C@H]3CC[C@]12C [FINASTERIDE] | Compound NOT metabolized | Compound NOT metabolized | Compound NOT metabolized | Compound NOT metabolized | Compound NOT metabolized | Compound metabolized | Compound NOT metabolized | Compound NOT metabolized | Compound NOT metabolized | Compound NOT metabolized | Compound metabolized | Compound NOT metabolized | Compound NOT metabolized | Compound NOT metabolized | Compound NOT metabolized | Compound NOT metabolized | Compound metabolized | Compound NOT metabolized |  | Compound metabolized
CCN(CC)CCOC(=O)C(Cc1cccc2ccccc12)CC1CCCO1.O=C(O)C(=O)O (stereo unspecified) [NAFRONYL OXALATE] | Compound NOT metabolized | Compound NOT metabolized |  | Compound NOT metabolized | Compound NOT metabolized | Compound NOT metabolized | Compound NOT metabolized | Compound NOT metabolized | Compound NOT metabolized | Compound NOT metabolized | Compound NOT metabolized | Compound NOT metabolized | Compound NOT metabolized | Compound NOT metabolized | Compound NOT metabolized | Compound NOT metabolized | Compound NOT metabolized | Compound NOT metabolized |  | Compound metabolized
OC(Cn1cncn1)(Cn1cncn1)c1ccc(F)cc1F [FLUCONAZOLE] | Compound NOT metabolized | Compound NOT metabolized | Compound NOT metabolized | Compound metabolized | Compound NOT metabolized | Compound metabolized | Compound NOT metabolized | Compound NOT metabolized |  |  | Compound NOT metabolized | Compound NOT metabolized | Compound NOT metabolized | Compound metabolized | Compound metabolized | Compound NOT metabolized |  | Compound metabolized | Compound metabolized | 
CCC(C)n1ncn(-c2ccc(N3CCN(c4ccc(OCC5COC(Cn6cncn6)(c6ccc(Cl)cc6Cl)O5)cc4)CC3)cc2)c1=O (stereo unspecified) [ITRACONAZOLE] | Compound NOT metabolized | Compound NOT metabolized | Compound NOT metabolized | Compound NOT metabolized | Compound NOT metabolized | Compound NOT metabolized |  | Compound NOT metabolized | Compound NOT metabolized | Compound NOT metabolized | Compound NOT metabolized | Compound NOT metabolized | Compound NOT metabolized | Compound NOT metabolized | Compound NOT metabolized | Compound NOT metabolized | Compound NOT metabolized | Compound NOT metabolized | Compound NOT metabolized | Compound NOT metabolized
